This is an account of results in ChEMBL document CHEMBL1132349, “Lead generation using pharmacophore mapping and three-dimensional database searching: application to muscarinic M(3) receptor antagonists” (J Med Chem, 1999).

Muscarinic acetylcholine receptor M3, sequence (Q8VH26 whole entry): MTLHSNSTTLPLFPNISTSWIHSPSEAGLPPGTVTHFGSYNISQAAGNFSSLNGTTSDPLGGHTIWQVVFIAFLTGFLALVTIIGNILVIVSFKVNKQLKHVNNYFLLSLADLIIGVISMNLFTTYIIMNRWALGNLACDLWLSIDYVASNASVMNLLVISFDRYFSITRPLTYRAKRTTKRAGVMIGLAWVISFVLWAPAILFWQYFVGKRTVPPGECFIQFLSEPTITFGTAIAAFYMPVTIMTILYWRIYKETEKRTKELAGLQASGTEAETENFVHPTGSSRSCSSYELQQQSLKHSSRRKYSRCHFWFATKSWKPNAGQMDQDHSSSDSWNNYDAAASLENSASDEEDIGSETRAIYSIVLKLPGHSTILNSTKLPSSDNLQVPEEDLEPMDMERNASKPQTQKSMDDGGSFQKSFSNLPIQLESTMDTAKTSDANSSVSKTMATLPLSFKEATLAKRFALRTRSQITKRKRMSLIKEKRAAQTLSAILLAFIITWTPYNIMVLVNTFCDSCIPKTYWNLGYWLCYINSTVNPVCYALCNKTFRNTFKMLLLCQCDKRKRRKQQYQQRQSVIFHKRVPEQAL

The assay addresses Muscarinic acetylcholine receptor M3 (Cavia porcellus, UniProt Q8VH26). Put plainly: The compound was tested for antagonistic activity against Muscarinic acetylcholine receptor M3 in guinea pig trachea. Type of assay: functional. The conditions noted are these: read-out: pA2 (converted).
Take `CCN(CC)CCOc1ccccc1C(=O)Cc1ccccc1`: the Kb was 214 nM.

`O=C(Nc1ccccc1)OC1CCCCC1CN1CCOCC1` (stereo not drawn): the Kb was 2880 nM.

As for `CCCOc1ccccc1C(=O)NC1CCCCC1CN1CCCCC1` (stereo not drawn), the Kb is 14800 nM.
